tested on: HIV-1 NL4-3 viral clone expressing Renilla luciferase; test: microbe, parasite or virus in culture; assay type: cell-based; settings: Human immunodeficiency virus 1, NL43, MT2, 96 h
Procedure: Protocol for MT-2 Spread Assay
The present assay was used to screen candidate antiviral compounds by quantification of virus spread and production over several rounds of infection in vitro. MT-2, a HIV-1 permissive human T-cell line, was seeded in microtiter plates and was simultaneously treated with serially diluted compound and inoculated with a HIV-1 NL4-3 viral clone engineered to express Renilla luciferase in place of Net Following treatment, the culture was incubated for 96 hours. After the incubation, media was collected and used to estimate relative infectivity on the indicator cell line, TZM-bl. Additionally, viral spread was quantified by measuring luciferase activity via a commercially available luciferase substrate. In parallel, MT-2 cells were seeded and inoculated with mock virus in the presence of serially diluted compound. Compound toxicity was quantified 96 hours after treatment with AlamarBlue.
MT-2 (NIH Aids reagent program 237) cells were grown and maintained in an incubator at 37° C. with 5% CO2 using a basal medium of RPMI-1640 supplemented with 10% FBS. Cells were seeded in 100 μl at 2×10^4 cells/well in white walled 96-well microtiter plates. Candidate compounds were 3-fold serially diluted in the appropriate solvent. Solvent without compound was used as a no drug reference. Cells were inoculated at a multiplicity of 0.027 with an HIV-1 NL4-3 virus stock engineered to express Renilla luciferase in place of Net Diluted virus stock was first added to serially diluted compound. Compound and virus were delivered to cells in an equal volume (100 μl) and treated cultures were returned to the incubator for 96 hours. In parallel, plates for cytotoxicity estimates were prepared in the same way except cells were plated in clear walled 96-well microtiter plates and were mock infected.
At 96 hours post infection, 100 μl virus containing culture supernatant was collected from the treated and infected cultures and serially diluted in DMEM supplemented with 10% FBS, 1% sodium pyruvate, and 20 μg/ml DEAE dextran. One day prior, TZM-bl (ATCC PTA-5659) were cultured in basal medium of DMEM supplemented with 10% FBS and 1% sodium pyruvate and seeded at 7.5×10^3 cells/well in black walled 96-well microtiter plates. Diluted virus containing culture supernatant was transferred to TZM-bl cultures and incubated for 48 hours at 37° C. with 5% CO2. Infected TZM-bl cultures were fixed for 5 minutes with a 1% formaldehyde/0.2% gluteraldehyde/PBS solution then washed three times with PBS. Fixed cultures were incubated at 37° C. for 25 minutes with a 200 μg/ml MUG (4-Methylumbelliferyl β-D-[…])/DMEM solution. The reaction was stopped with an equal volume of 1M sodium carbonate and read at 360, 449 nm on fluorescence plate reader (Biotek).
At 96 hours post infection, 100 μl of culture supernatant was removed from the treated and infected cultures and EnduRen live cell substrate (Promega) was added at a final concentration 1.3 μg/ml. Cells were incubated for 1.5 hours at 37° C. with 5% CO2 then read on a luminescence plate reader (Biotek).
For all assays, data was imported into Accelrys Assay Explorer 3.3. In Assay Explorer, % inhibition (antiviral or cytotoxicity) was calculated using the solvent control as a reference by the following equation: 1−(SignalCompound/SignalReference). The % Inhibition and compound concentration data was fitted using the following 4-parameter logistic model (Assay Explorer model 42):
[formula] where X is compound concentration, Y is % inhibition, D is the maximum % Inhibition (constrained to 100%), C is IC50 value or inflection point, B is the hill slope, and A is the minimum % inhibition (constrained to 0%). The IC50 value is reported as the EC50 or CC50 depending on the assay endpoint. EC50 represents the effective concentration at which virus replication is inhibited by 50 percent. CC50 represents the concentration that results in the death of 50 percent of the host cells. […]

First: COc1cc2c(cc1OCc1ccccc1)CCNC2/C=C/c1ccccc1 (centres unmarked) [BI, 6-Benzyloxy-7-methoxy-1-[(E)-styryl]-1,2,3,4-tetrahydroisoquinoline]
Second: COc1cc2c(cc1OCc1ccccc1)CCNC2/C=C/c1ccccc1N (centres unmarked) [CX, 2-[(E)-2-(6-benzyloxy-7-methoxy-1,2,3,4-tetrahydroisoquinolin-1-yl)vinyl]aniline]
The EC50 of the first is 1.6-fold higher: 2200 nM for the first, 1400 nM for the second. The second is the more potent here.

First: COc1cc2c(cc1OCc1ccccc1)CCNC2/C=C/c1cc(C)c(OC)c(C(F)(F)F)c1 (centres unmarked) [CZ, (E)-6-(benzyloxy)-7-methoxy-1-(4-methoxy-3-methyl-5-(trifluoromethyl)styryl)-1,2,3,4-tetrahydroisoquinoline]
Second: COc1cc2c(cc1OCc1ccccc1)CCNC2/C=C/c1ccc(OC)c(C)c1C (centres unmarked) [EL, 6-Benzyloxy-7-methoxy-1-[(E)-2-(4-methoxy-2,3-dimethyl-phenyl)vinyl]-1,2,3,4-tetrahydroisoquinoline]
The EC50 of the first is 15-fold higher: 2190 nM for the first, 150 nM for the second. The second is the more potent here.

Compared with `CCOC(=O)c1ccccc1/C=C/C1NCCc2cc(OCc3ccccc3)c(OC)cc21` (centres unmarked) [ET, Ethyl 2-[(E)-2-(6-benzyloxy-7-methoxy-1,2,3,4-tetrahydroisoquinolin-1-yl)vinyl]benzoate], `COc1cc2c(cc1OCc1ccccc1)CCNC2/C=C/c1cccc(C(=O)O)c1` (centres unmarked) [ER, 3-[(E)-2-(6-benzyloxy-7-methoxy-1,2,3,4-tetrahydroisoquinolin-1-yl)vinyl]benzoic acid] is 4-fold higher in EC50: 2480 nM for the first, 10000 nM for the second.

Compared with `COc1cc2c(cc1OCc1ccccc1)CCNC2/C=C/c1cscn1` (centres unmarked) [DR, 6-(Benzyloxy)-7-methoxy-1-[(E)-2-(1,3-thiazol-4-yl)ethenyl]-1,2,3,4-tetrahydroisoquinolin], `COc1cc2c(cc1OCc1ccccc1)CCNC2/C=C/c1nccs1` (centres unmarked) [DV, 6-(Benzyloxy)-7-methoxy-1-[(E)-2-(1,3-thiazol-2-yl)ethenyl]-1,2,3,4-tetrahydroisoquinoline] is 6.1-fold higher in EC50: 4820 nM for the first, 29500 nM for the second. The first is the more potent here.

First: COc1cc(F)c(/C=C/C2NCCc3cc(OCc4ccccc4)c(OC)cc32)cc1OC (centres unmarked) [BP, 6-Benzyloxy-1-[(E)-2-(2-fluoro-4,5-dimethoxy-phenyl)vinyl]-7-methoxy-1,2,3,4-tetrahydroisoquinoline]
Second: COc1ccc(/C=C/C2NCCc3cc(OCc4ccccc4)c(OC)cc32)c(F)c1 (centres unmarked) [BR, 6-Benzyloxy-1-[(E)-2-(2-fluoro-4-methoxy-phenyl)vinyl]-7-methoxy-1,2,3,4-tetrahydroisoquinoline]
The EC50 of the first is 1.8-fold higher: 2030 nM for the first, 1140 nM for the second. The second is the more potent here.

Compared with `COc1cc2c(cc1OCc1ccccc1)CCNC2/C=C/c1ccc(C(=O)O)cc1` (centres unmarked) [EQ, 4-[(E)-2-(6-benzyloxy-7-methoxy-1,2,3,4-tetrahydroisoquinolin-1-yl)vinyl]benzoic acid], `COc1cc2c(cc1OCc1ccccc1)CCNC2/C=C/c1ccc(N2CCN(C)CC2)cc1` (centres unmarked) [DW, 6-(Benzyloxy)-7-methoxy-1-[(E)-2-[4-(4-methylpiperazin-1-yl)phenyl]ethenyl]-1,2,3,4-tetrahydroisoquinoline] is 5.7-fold lower in EC50: 7040 nM for the first, 1240 nM for the second.

Compared with `COc1cc2c(cc1OCc1ccccc1)CCNC2/C=C/c1ccc(-c2cncnc2)cc1` (centres unmarked) [DS, 6-(Benzyloxy)-7-methoxy-1-[(E)-2-[4-(pyrimidin-5-yl)phenyl]ethenyl]-1,2,3,4-tetrahydroisoquinoline], `COc1cc(/C=C/C2NCCc3cc(OCc4ccccc4)c(OC)cc32)ccn1` (centres unmarked) [AU, 6-benzyloxy-7-methoxy-1-[(E)-2-(2-methoxy-4-pyridyl)vinyl]-1,2,3,4-tetrahydroisoquinoline] is 14-fold higher in EC50: 116 nM for the first, 1650 nM for the second. The first is the more potent here.

Going from `COc1cc(C)c(/C=C/C2c3cc(OC)c(OCc4ccccc4)cc3CCN2C(=O)NC(C)(C)C)cc1OCc1ccccc1` (centres unmarked) [Example O, 6-benzyloxy-1-[(E)-2-(5-benzyloxy-4-methoxy-2-methyl-phenyl)vinyl]-N-tert-butyl-7-methoxy-3,4-dihydro-1H-isoquinoline-2-carboxamide] to `COc1cc(C)c(/C=C/C2c3cc(OC)c(OCc4ccccc4)cc3CCN2C)cc1OCc1ccccc1` (centres unmarked) [Example E, 6-Benzyloxy-1-[(E)-2-(5-benzyloxy-4-methoxy-2-methyl-phenyl)vinyl]-7-methoxy-2-methyl-3,4-dihydro-1H-isoquinoline], the EC50 rises from 2010 nM to 8470 nM (4.2-fold).

First: COc1cc2c(cc1OCc1ccccc1)CCNC2/C=C/c1cc2ccccc2n1C(=O)OC(C)(C)C (centres unmarked) [CH, tert-Butyl 2-[(E)-2-(6-benzyloxy-7-methoxy-1,2,3,4-tetrahydroisoquinolin-1-yl)vinyl]indole-1-carboxylate]
Second: COc1cc2c(cc1OCc1ccccc1)CCNC2c1ccccc1CNC(=O)OC(C)(C)C (centres unmarked) [AZ, tert-Butyl N-[[2-(6-benzyloxy-7-methoxy-1,2,3,4-tetrahydroisoquinolin-1-yl)phenyl]methyl]carbamate]
The EC50 of the first is 4.8-fold lower: 580 nM for the first, 2770 nM for the second. The first is the more potent here.

Compared with `COc1cc2c(cc1OCc1ccccc1)CCNC2/C=C/c1cc(OCC(C)(C)C)c(OC)cc1C` (centres unmarked) [BX, 6-Benzyloxy-1-[(E)-2-[5-(2,2-dimethylpropoxy)-4-methoxy-2-methyl-phenyl]vinyl]-7-methoxy-1,2,3,4-tetrahydroisoquinoline], `COc1cc(C)c(/C=C/C2NCCc3cc(OCc4ccccc4)c(OC)cc32)cc1OCCCCN=[N+]=[N-]` (centres unmarked) [CD, 1-[(E)-2-[5-(4-azidobutoxy)-4-methoxy-2-methyl-phenyl]vinyl]-6-benzyloxy-7-methoxy-1,2,3,4-tetrahydroisoquinoline] is 4-fold lower in EC50: 350 nM for the first, 88 nM for the second. The second is the more potent here.

Compared with `COc1cc2c(cc1OCc1ccccc1)CCNC2/C=C/c1scnc1C` (centres unmarked) [DY, 5-[(E)-2-(6-Benzyloxy-7-methoxy-1,2,3,4-tetrahydroisoquinolin-1-yl)vinyl]-4-methyl-thiazole], `COc1cc2c(cc1OCc1ccccc1)CCNC2/C=C/c1cc(C(C)C)c(OC)cc1C` (centres unmarked) [BW, 6-Benzyloxy-1-[(E)-2-(5-isopropyl-4-methoxy-2-methyl-phenyl)vinyl]-7-methoxy-1,2,3,4-tetrahydroisoquinoline] is 6.6-fold lower in EC50: 5510 nM for the first, 840 nM for the second.

First: COc1cc2c(cc1OCc1ccccc1)CCNC2/C=C/c1c(C)ccc2c1OCCC2 (centres unmarked) [CC, 6-Benzyloxy-7-methoxy-1-[(E)-2-(7-methylchroman-8-yl)vinyl]-1,2,3,4-tetrahydroisoquinoline]
Second: COc1cc2c(cc1OCc1ccccc1)CCNC2/C=C/c1ccccc1N1CCOCC1 (centres unmarked) [DH, (E)-4-(2-(2-(6-(benzyloxy)-7-methoxy-1,2,3,4-tetrahydroisoquinolin-1-yl)vinyl)phenyl)morpholine]
The EC50 of the first is 4.5-fold lower: 1180 nM for the first, 5260 nM for the second.

Compared with `COc1ccc(/C=C/C2c3cc(OC)c(OCc4ccccc4)cc3CCN2C(=O)c2cnccn2)cc1OCc1ccccc1` (centres unmarked) [Example B, [6-Benzyloxy-1-[(E)-2-(3-benzyloxy-4-methoxy-phenyl)vinyl]-7-methoxy-3,4-dihydro-1H-isoquinolin-2-yl]-pyrazin-2-yl-methanone], `COc1cc2c(cc1OCc1ccccc1)CCNC2/C=C/c1cc(OC)c(OCc2ccccc2)c(OC)c1` (centres unmarked) [AP, 6-Benzyloxy-1-[(E)-2-(4-benzyloxy-3,5-dimethoxy-phenyl)vinyl]-7-methoxy-1,2,3,4-tetrahydroisoquinoline] is 10-fold lower in EC50: 10000 nM for the first, 970 nM for the second.

`COc1cc(C)c(CCC2NCCc3cc(OCc4ccccc4)c(OC)cc32)cc1OCc1ccccc1` (centres unmarked) [Example Q, 6-benzyloxy-1-[2-(5-benzyloxy-4-methoxy-2-methyl-phenyl)ethyl]-7-methoxy-1,2,3,4-tetrahydroisoquinoline] and `COc1cc2c(cc1OCc1ccccc1)CCNC2/C=C/c1ccc(OC)c2ccoc12` (centres unmarked) [Example AO, 6-Benzyloxy-7-methoxy-1-[(E)-2-(4-methoxybenzofuran-7-yl)vinyl]-1,2,3,4-tetrahydroisoquinoline] are within 1.5-fold of each other in EC50: 1360 nM for the first, 1130 nM for the second.

With `COc1cc2c(cc1OCc1ccccc1)CCNC2/C=C/c1ccc2c(c1)OC(F)(F)O2` (centres unmarked) [DF, (E)-6-(benzyloxy)-1-(2-(2,2-difluorobenzo[d][1,3]dioxol-5-yl)vinyl)-7-methoxy-1,2,3,4-tetrahydroisoquinoline] the EC50 was 5440 nM.
